# Several values for one entry are separate records, joined by “and”; a condition that tells them apart may be missing. Equal values may be shown once. Read-outs that look alike come from different tables or passages of the source.
# How the values were obtained:
# [1] = system: TNF-α secretion in PBMC; test: Inhibition of LPS-stimulated TNF-α secretion in PBMC (ELISA); format: cell-based; settings: Homo sapiens, PBMC; for inhibition at 1 µM / inhibition at 10 µM: read-out: Inhibition rate %
# Source text: According to the difference in cell density in human blood, PBMC (peripheral blood mononuclear cell, PBMC) was directly separated and purified by gradient centrifugation using lymphocyte separation fluid. The cell type was mononuclear cells in blood, mainly including lymphocytes (T/B), monocytes, macrophages, dendritic cells and other minor cell types, of which lymphocytes account for a large part, which can directly in vitro simulate the blood immune environment.
# PBMC cells isolated from human blood were implanted into 96-well plates at 2*10^5/ml; compounds in gradients were added, with at least three replicates for each gradient; After the PBMCs were incubated at 37° C., 5% CO2 for 1 hour, LPS was added (the final concentration was 10 ug/ml) to stimulate PBMC to express TNF-α, and incubated for another 18-20 h at 37° C., 5% C02. The 96-well plate was collected. The background control with no stimulant and stimulation control wells were also set, with a total volume of 200 μl. The culture supernatant was collected by centrifugation, and the expression level of TNF-α in the culture supernatant was detected by ELISA.
# [2] = system: RAW 264.7 cells; test: Cytotoxicity on RAW 264.7 cells (CCK-8 method); format: cell-based, mouse
# Procedure: Mouse RAW 264.7 cells were purchased from American Type Culture Collection (Manassas, VA, USA), and cultivated in DMEM culture medium (Hyclone, South Logan, UT, USA) containing 10% fetal bovine serum (Hyclone, South Logan, UT, USA). Cells were collected and counted before use, and inoculated in a 96-well plate (Corning, NY, USA) at 1×10^5/well. […] 20 μl of CCK-8 solution (Dojindo, Kumamoto, Japan) was added at 30 min before the end of the culture. After the cultivation was ended, the absorbance OD value was measured at 450 nm (reference 650 nm) on amicroplate reader (Molecular Devices, Sunnyvale, CA, USA). The toxicity of the compound on RAW 264.7 cells was calculated by dividing the OD value of the test sample by the OD value of the cell control well, which was labeled as the cell survival rate M %.
# [3] = system: tumor necrosis factor-α secretion in RAW 264.7 cells; test: Inhibition of LPS-stimulated tumor necrosis factor-α secretion in RAW 264.7 cells (ELISA); format: cell-based, mouse; settings: Mus musculus, RAW264.7, 4 h, read-out: Tumor necrosis factor-α inhibition rate/%
# Procedure: After the activation by bacterial lipopolysaccharide (LPS), various inflammatory mediators such as tumor necrosis factor-α will be released; Phosphodiesterase PDE4 is also expressed in macrophages, and the inhibitory activity of the compound on phosphodiesterase PDE4 can be reflected by detecting the secretion of tumor necrosis factor-α.
# Under the stimulation of 1 μg/ml LPS (L5886, Sigma, St. Louis, MO, USA), the cells were cultured in a 37° C., 5% CO2 incubator for 4 h. The background control with no stimulant and stimulation control wells were also set, with a total volume of 200 μl. The culture supernatant was collected by centrifugation, and the secretion level of tumor necrosis factor-α in the culture supernatant was detected by enzyme-linked immunosorbent assay. The tumor necrosis factor-α detection kit was purchased from BD Pharmingen (San Diego, CA, USA).
# [4] = target: Human PDE4D catalytic domain (Homo sapiens (Human), UniProt Q08499); test: Scintillation Proximity Assay (SPA), inhibition of PDE4D catalytic domain activity; format: biochemical; settings: read-out: PDE4D enzyme activity inhibition rate %
# Human PDE4D catalytic domain, sequence (Q08499 386-715): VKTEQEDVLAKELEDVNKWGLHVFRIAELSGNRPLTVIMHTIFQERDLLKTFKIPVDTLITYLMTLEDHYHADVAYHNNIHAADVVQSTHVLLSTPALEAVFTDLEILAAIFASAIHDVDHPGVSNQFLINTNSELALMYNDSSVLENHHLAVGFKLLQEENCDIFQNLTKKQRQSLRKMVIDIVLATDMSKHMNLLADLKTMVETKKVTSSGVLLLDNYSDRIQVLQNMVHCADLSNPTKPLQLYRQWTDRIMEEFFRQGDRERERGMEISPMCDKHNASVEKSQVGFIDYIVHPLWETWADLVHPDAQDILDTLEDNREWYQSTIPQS
Compound,IC50 [1] [nM],inhibition at 1 µM [1] [%],inhibition at 10 µM [1] [%],"Cell survival rate/% ([2]; RAW 264.7, 0.5 μM)","Cell survival rate/% ([2]; RAW 264.7, 5 μM)","Cell survival rate/% ([2]; RAW 264.7, 50 μM)",inhibition at 0.5 µM [3] [%],inhibition at 5 µM [3] [%],inhibition at 50 µM [3] [%],inhibition at 1 µM [4] [%],inhibition at 1 µM ([4]; Compound concentration: 1 μM) [%]
"COc1cc2c(cc1OCC1CC1)C(CCc1c[nH]c3ccccc13)N(C=O)CC2 (stereo not shown) [Compound A3, 1-(2-(1H-indol-3-yl)ethyl)-7-(cyclopropyl-methoxy)-6-methoxy-3,4-dihydroisoquinoline-2(1H)-formaldehyde]",5690,0.84,65.7,96.9%,108.2%,94%,-0.5,-15.5,27.3,–,–
"COc1ccc2[nH]cc(CC[C@H]3c4cc(OC(F)F)c(OC)cc4CCN3C=O)c2c1 [(S)-C64, (S)-7-difluoromethoxy-1-(2-(5-methoxy-1H-indol-3-yl)ethyl)-6-methoxy-3,4-dihydroisoquinoline-2(1H)-formaldehyde]",–,–,–,–,–,–,–,–,–,76.5,–
"CNC(=O)c1cc2c(cc1OC)CCN(C=O)[C@H]2CCc1c[nH]c2ccc(OC)cc12 [(S)-C69, (S)-2-formyl-6-methoxy-1-(2-(5-methoxy-1H-indol-3-yl)ethyl)-N-methyl-1,2,3,4-tetrahydroisoquinoline-7-carboxamide]",–,–,–,–,–,–,–,–,–,–,80.5
"CCOc1cc2c(cc1OC)CCN(CCS(C)(=O)=O)[C@H]2Cc1c[nH]c2ccccc12 [(S)-C14, (S)-1-((1H-indol-3-yl)methyl)-7-ethoxy-6-methoxy-2-(2-(methylsulfonyl)ethyl)-1,2,3,4-tetrahydroisoquinoline]",–,17,54.5,128.3%,98.8%,97.3%,2.4,-2.2,13.6,–,–
"CCOc1cc2c(cc1OC)CCN(C=O)[C@H]2Cc1c[nH]c2ccc(C)cc12 [(S)-C17, (S)-7-ethoxy-6-methoxy-1-((5-methyl-1H-indol-3-yl)methyl)-3,4-dihydroisoquinoline-2(1H)-formaldehyde]",–,–,18.8,101.7%,87.3%,103.9%,-32.2,-33.7,-13.4,–,–
"COc1cc2c(cc1OC)[C@@H](CCc1c[nH]c3ccccc13)N(C=O)CC2 [(R)-A1, (R)-1-(2-(1H-indol-3-yl)ethyl)-6,7-dimethoxy-3,4-dihydroisoquinoline-2(1H)-formaldehyde]",–,–,–,102.7% and 135.9%,106.2% and 110.1%,89.3% and 122.5%,–,–,–,–,–
"CCOc1cc2c(cc1OC)CCN(S(=O)(=O)c1ccc(OC)cc1)[C@H]2CCc1c[nH]c2ccc(OC)cc12 [(S)-C60, (S)-7-ethoxy-6-methoxy-1-(2-(5-methoxy-1H-indol-3-yl)ethyl)-2-(4-methoxyphenyl)sulfonyl-1,2,3,4-tetrahydroisoquinoline]",–,–,–,–,–,–,–,–,–,–,42
"COCC(=O)N1CCc2cc(OC)c(OC)cc2C1Cc1c[nH]c2ccccc12 (stereo not shown) [Compound C11, 1-(1-((1H-indol-3-yl)methyl)-6,7-dimethoxy-3,4-dihydroisoquinoline-2(1H)-yl)-2-methoxyethane-1-one]",–,39.9,50,97.9%,91.2%,87.3%,-12.7,-11.9,20.1,–,–
"COc1cc2c(cc1OC)[C@H](Cc1c[nH]c3ccccc13)N(C(=O)CS(C)(=O)=O)CC2 [(S)-C13, (S)-1-(1-((1H-indol-3-yl)methyl)-6,7-dimethoxy-3,4-dihydroisoquinoline-2(1H)-yl)-2-(methanesulfonyl)ethane-1-one]",–,–,29.9,111.2%,91.4%,101.7%,-3,-13.7,-37.3,–,–
"CCOc1cc2c(cc1OC)CCN(C=O)C2Cc1c[nH]c2ccccc12 (stereo not shown) [Compound C10, 1-((1H-indol-3-yl)methyl)-7-ethoxy-6-methoxy-3,4-dihydroisoquinoline-2(1H)-formaldehyde]",–,–,–,119.5%,111.4%,94%,–,–,–,–,–
"COc1cc2c(cc1OCC1CC1)[C@H](CCc1c[nH]c3cc(C)ccc13)N(C=O)CC2 [(S)-C4, (S)-7-(cyclopropylmethoxy)-6-methoxy-1-(2-(6-methyl-1H-indol-3-yl)ethyl)-3,4-dihydroisoquinoline-2(1H)-formaldehyde]",2120,32,76.9,97.6%,71.8%,77.3%,-30.1,-25.6,54.5,–,–
"CCOc1cc2c(cc1OC)CCN(C(=O)COC)[C@H]2Cc1c[nH]c2ccccc12 [(S)-C16, (S)-1-(1-((1H-indol-3-yl)methyl)-7-ethoxy-6-methoxy-3,4-dihydroisoquinoline-2(1H)-yl)-2-methoxyethane-1-one]",–,–,1.89,123.2%,133.1%,113.1%,2.6,12.7,10.4,–,–
"CCOc1cc2c(cc1OC)CCN(S(=O)(=O)c1cccc(F)c1)[C@H]2CCc1c[nH]c2ccc(OC)cc12 [(S)-C50, (S)-7-ethoxy-6-methoxy-1-(2-(5-methoxy-1H-indol-3-yl)ethyl)-2-(3-fluorophenyl)sulfonyl-1,2,3,4-tetrahydroisoquinoline]",–,–,–,–,–,–,–,–,–,–,49.4
"CCOc1cc2c(cc1OC)CCN(C(=O)C(F)(F)F)[C@H]2CCc1c[nH]c2ccc(OC)cc12 [(S)-C54, (S)-7-ethoxy-1-(2-(5-methoxy-1H-indol-3-yl)ethyl)-6-methoxy-3,4-dihydroisoquinoline-2(1H)-trifluoroethane-1-one]",–,–,–,–,–,–,–,–,–,–,46
"COc1ccc2[nH]cc(CC[C@H]3c4cc(C(=O)O)c(OC)cc4CCN3C=O)c2c1 [(S)-C68, (S)-2-formyl-6-methoxy-1-(2-(5-methoxy-1H-indol-3-yl)ethyl)-1,2,3,4-tetrahydroisoquinoline-7-carboxylic acid]",–,–,–,–,–,–,–,–,–,–,83.1
"COc1ccc2[nH]cc(CC[C@H]3c4cc(OC(F)(F)F)c(OC)cc4CCN3C=O)c2c1 [(S)-C63, (S)-7-trifluoromethoxy-1-(2-(5-methoxy-1H-indol-3-yl)ethyl)-6-methoxy-3,4-dihydroisoquinoline-2(1H)-formaldehyde]",–,–,–,–,–,–,–,–,–,75.3,–
"CCOc1cc2c(cc1OC)CCN(C=O)[C@H]2CCc1c[nH]c2ccc(OC(F)(F)F)cc12 [(S)-C76, (S)-7-ethoxy-6-methoxy-1-(2-(5-trifluoromethoxy-1H-indol-3-yl)ethyl)-3,4-dihydroisoquinoline-2(1H)-formaldehyde]",–,–,–,–,–,–,–,–,–,–,92.3
"COc1cc2c(cc1OCC1CC1)[C@H](CCc1c[nH]c3ccccc13)N(C=O)CC2 [(S)-A3, (S)-1-(2-(1H-indol-3-yl)ethyl)-7-(cyclopropyl-methoxy)-6-methoxy-3,4-dihydroisoquinoline-2(1H)-formaldehyde]",2650,31.2,76.6,110.9%,86.5%,77.3%,-2.9,-3.5,54.6,–,–
"CCOc1cc2c(cc1OC)CCN(C=O)[C@H]2Cc1c[nH]c2ccccc12 [(S)-C10, (S)-1-((1H-indol-3-yl)methyl)-7-ethoxy-6-methoxy-3,4-dihydroisoquinoline-2(1H)-formaldehyde]",–,–,–,89.1%,84.6%,104.1%,–,–,–,–,–
"CCOc1cc2c(cc1OC)CCN(C=O)[C@H]2Cc1c[nH]c2ccc(OC)cc12 [(S)-C18, (S)-7-ethoxy-6-methoxy-1-((5-methoxy-1H-indol-3-yl)methyl)-3,4-dihydroisoquinoline-2(1H)-formaldehyde]",–,–,39.4,118%,111.5%,112.9%,15.8,14.5,38.8,–,–
"CCOc1cc2c(cc1OC)CCN(C(=O)CS(C)(=O)=O)[C@H]2Cc1c[nH]c2ccccc12 [(S)-C15, (S)-1-(1-((1H-indol-3-yl)methyl)-7-ethoxy-6-methoxy-3,4-dihydroisoquinoline-2(1H)-yl)-2-(methanesulfonyl)ethane-1-one]",–,–,-23.9,107.3%,110.5%,101.2%,18,-4.5,-37.7,–,–
"CCOc1cc2c(cc1OC)CCN(C=O)[C@H]2CCc1c[nH]c2ccccc12 [(S)-A4, (S)-1-(2-(1H-indol-3-yl)ethyl)-7-ethoxy-6-methoxy-3,4-dihydroisoquinoline-2(1H)-formaldehyde]",–,–,–,103%,100.8%,98.1%,–,–,–,–,–
"CCOc1cc2c(cc1OC)CCN(C=O)C2CCc1c[nH]c2ccccc12 (stereo not shown) [Compound A4, 1-(2-(1H-indol-3-yl)ethyl)-7-ethoxy-6-methoxy-3,4-dihydroisoquinoline-2(1H)-formaldehyde]",–,–,–,100.6%,113.4%,95.3%,–,–,–,–,–
"COc1cc2c(cc1OC)C(Cc1c[nH]c3ccccc13)N(CCS(C)(=O)=O)CC2 (stereo not shown) [Compound C12, 1-((1H-indol-3-yl)methyl)-6,7-dimethoxy-2-(2-(methylsulfonyl)ethyl)-1,2,3,4-tetrahydroisoquinoline]",–,45.4,52.7,93.6%,115.7%,103.8%,-15.1,-7.9,25.5,–,–
